From patent US20100093613A1, “METHODS FOR IDENTIFYING AGENTS AND THEIR USE FOR THE PREVENTION OR STABILIZATION OF FIBROSIS” (priority 2007, published 2010)

Key:
[1] = test system: human primary cells; assay: Total score for desired parameter modulation over the BioMAP systems of Table 1; type: cell-based; settings: penalties not applied
From the text: (§1) Each screened compound is scored according to its modulation of the selected readout parameters. Compounds receive a positive score (score of 1) or negative score (score of 0) for each readout parameter set forth in Table 2 that is modulated in the desired direction. […] Parameters may be penalized by making the positive score a −1 for parameters where regulation is opposite to the desired direction.
The relative importance of each parameter may be weighted by the screener to select those parameters of greatest interest for a particular application.
(§2) Compounds were first selected to inhibit PAI-1 in the HDFT as an indication of TBF-b signaling inhibition without being cytotoxic. […] Blank spots in Table 3 were where parameter was not assayed. Penalties were not applied for this scoring.
BioMAP Systems are designed to model complex human disease biology in a practical in vitro format. This is achieved by stimulating human primary cells (single cell type or defined mixtures of cell types) such that multiple disease-relevant signaling pathways are simultaneously active. The choice of cell types and stimulations is guided by the knowledge of disease biology and mechanisms. Incorporating appropriate cell types and stimulating signaling pathways relevant to disease states allows association of biological activities detected in BioMAP Systems with disease processes. Drug effects are then recorded by measuring biologically meaningful protein readouts that provide coverage of biological space of interest (e.g., inflammation, tissue remodeling) and allow discrimination between different drug classes tested.
(§3) Cell culture. Human umbilical vein endothelial cells (HUVEC) were pooled from multiple donors, cultured according to standard methods, and plated into microtiter plates at passage 4. Cell culture medium for all systems containing HUVEC included hydrocortisone. Coronary artery smooth muscle cells (CASM3C) and umbilical artery smooth muscle cells (HSM3C) were cultured according to standard procedures. Peripheral blood mononuclear cells (PBMC) were prepared from buffy coats from normal human donors according to standard methods. Monocyte-derived macrophages were differentiated in the presence of M-CSF for 7 d according to standard procedures. Human dermal fibroblasts were pooled from 3 donors, cultured according to standard methods, and plated confluent 24 h before stimulation. Cell culture medium for all systems containing fibroblasts and keratinocytes contained low hydrocortisone. Epidermal keratinocytes and bronchial epithelial cells from 3 donors were cultured according to standard procedures and pooled when plated into microtiter plates. For keratinocyte-fibroblast co-cultures, cells were plated simultaneously 24 h before stimulation. For bronchial epithelial cell-fibroblast co-cultures, fibroblasts were plated and cultured 48 before addition of epithelial cells, then cultured another 24 hr before stimulation. Concentrations/amounts of agents added to confluent microtiter plates to build each system: cytokines (IL-1β, 1 ng/ml; TNF-α, 5 ng/ml; IFN-γ, 20 ng/ml; IL-4, 5 ng/ml), activators (SAg, 20 ng/ml; histamine, 10 μM; zymosan, 10 μg/ml; or LPS, 2 ng/ml), growth factors (TGF-β, 5 ng/ml; EGF, bFGF, and PDGF-BB, 10 ng/ml), and PBMC (7.5×10^4 cells/well) or macrophages (3.5×10^4 cells/well).
(§4) Compounds. Compounds were prepared in the solvent directed, added 1 hr before stimulation of the cells, and were present during the 24 hr stimulation period for the measurement of parameters listed in Table 2. For proliferation, compounds added 1 hr before stimulation of the cells with cytokines, and were present during the 48 to 72 hr assay. If prepared in DMSO, the final concentration of solvent was 0.1% or less.
Readout Parameter Measurements. The levels of readout parameters were measured by ELISA.

[2] = test system: Fibroblasts; assay: BioMAP HDF3CGF system (IL-1β + TNF-α + IFN-γ + EGF + bFGF + PDGFbb), scoring of readout parameters; type: cell-based, human; settings: for PAI-1 score: desired change decrease; for MMP-1 score: desired change increase; for EGFR score: desired no change or increase
Description: In the “HDF-3CGF” system, dermal fibroblast cells, usually primary human dermal fibroblast cells are cultured alone or in the presence of lung epithelial cells, usually primary human lung epithelial cells, with two or more factors selected from: TNF, IL-1, IFNγ, EGF, bFGF+HSPG (heparan sulfate proteoglycan), and PDGFbb. In some embodiments three or more factors are present, four or more, five or more, or all six factors are present.
Human neonatal dermal fibroblasts (HDFn) or adult lung fibroblasts (HDFp) or fibroblasts from tissues such as liver, heart, or kidney are used. Cells are cultured at 3×10^4 cells/ml in DMEM/F12 (50/50) from Cellgro, supplemented with LSGS kit (from Cascade Biologics); fetal bovine serum, 2% v/v, hydrocortisone 100 nM, human epidermal growth factor 10 ng/ml, basic fibroblast growth factor 3 ng/ml and heparin 10 μg/ml, and penicillin/streptomycin amphotericin B solution (PSA), until confluency. Medium is replaced with DMEM/F12 with only penicillin/streptomycin amphotericin B solution (PSA), then 24 hours later, the following are applied:
After another 24, 48 or 72 hours incubation (37° C., 5% CO2) the cultures are evaluated for the following parameters: ICAM, VCAM, CD40, CD90, IP-10, MCP-1, Collagen I, Mig, m-CSF, TIMP-2, PAI-I, IL-8, Collagen III, HLA-DR, MMP-1, MMP-9, proliferation, TGF-b1, eotaxin-3, decorin, alpha-SMC, MLCK, I-TAC, EGFR, TIMP-1.
Cell culture. […] Human dermal fibroblasts were pooled from 3 donors, cultured according to standard methods, and plated confluent 24 h before stimulation. Cell culture medium for all systems containing fibroblasts and keratinocytes contained low hydrocortisone. […] Concentrations/amounts of agents added to confluent microtiter plates to build each system: cytokines (IL-1β, 1 ng/ml; TNF-α, 5 ng/ml; IFN-γ, 20 ng/ml; IL-4, 5 ng/ml), activators (SAg, 20 ng/ml; histamine, 10 μM; zymosan, 10 μg/ml; or LPS, 2 ng/ml), growth factors (TGF-β, 5 ng/ml; EGF, bFGF, and PDGF-BB, 10 ng/ml), and PBMC (7.5×10^4 cells/well) or macrophages (3.5×10^4 cells/well).

[3] = test system: Peripheral Blood Mononuclear Cells + Umbilical Vein Endothelial Cells; assay: BioMAP LPS system (TLR4), scoring of readout parameters; type: cell-based, human; settings: LPS (by position); desired change decrease
From the text: as §1, §3, §4
(§5) Readout Parameter Measurements. The levels of readout parameters were measured by ELISA. Briefly, microtiter plates are treated, blocked, and then incubated with primary antibodies or isotype control antibodies (0.01-0.5 microg/ml) for 1 hr. After washing, plates were incubated with a peroxidase-conjugated anti-mouse IgG secondary antibody or a biotin-conjugated anti-mouse IgG antibody for 1 hr followed by streptavidin-HRP for 30 min. Plates were washed and developed with TMB substrate and the absorbance (OD) was read at 450 nm (subtracting the background absorbance at 650 nm). Quantitation of TNF-alpha or PGE2 in the LPS system was done using a commercially available kit according to the manufacturer's directions. Proliferation of endothelial cells (HUVEC and CAEC), smooth muscle cells (SMC and CASMC), and PBMC (T cells) was quantitated by Alamar Blue reduction or SRB.
(§6) Data analysis. Mean OD values for each parameter were calculated for compounds run in duplicate. The mean value (or single well OD value) for each parameter in a treated sample was then divided by the mean value from an appropriate control to generate a ratio. All ratios were then log10 transformed. 95% significance prediction envelopes (grey shading in Figures) were calculated for historical controls.

[4] = test system: Bronchial epithelial cells; assay: BioMAP BE3C system (IL-1β + TNF-α + IFN-γ), scoring of readout parameters; type: cell-based, human; settings: for PAI-1 score: desired change decrease; for EGFR score: desired no change or increase
From the text: as §1, §3, §4, §5, §6

[5] = test system: Umbilical Vein Endothelial Cells; assay: BioMAP 3C system (IL-1β + TNF-α + IFN-γ), scoring of readout parameters; type: cell-based, human; settings: for HLA-DR score: desired change decrease; for uPAR score: desired change increase
From the text: as §1, §3, §4, §5, §6

[6] = test system: Fibroblasts; assay: BioMAP HDFT system (TGF-β), scoring of readout parameters; type: cell-based, human; set-up: key to PAI-1 score: 1 = modulated in desired direction, 0 = not (no penalties applied); settings: for PAI-1 score: HDFT, desired change decrease
From the text: as §1, §2, §3, §4, §5
Data analysis. Mean OD values for each parameter were calculated for compounds run in duplicate. The mean value (or single well OD value) for each parameter in a treated sample was then divided by the mean value from an appropriate control to generate a ratio.

[7] = test system: Bronchial epithelial cells; assay: BioMAP BE4T system (IL-4 + TNF-a), scoring of readout parameters; type: cell-based, human; set-up: key: 1 = modulated in desired direction, 0 = not (−1 = opposite); settings: for PAI-1 score: desired change decrease; for EGFR score: desired no change or increase
Description: In the “BE4T” system, bronchial epithelial cells, usually primary human bronchial epithelial cells, are cultured in the presence of TNF-α and IL-4.
as §1, §3, §4, §5, §6

[8] = test system: Fibroblasts; assay: BioMAP HDF3CT system (IL-1β + TNF-α + IFN-γ + TGF-β), scoring of readout parameters; type: cell-based, human
From the text: as §1, §3, §4, §5, §6

| Compound | Score (Fraction correctly modulated parameters out of 45-58 total) [1] | PAI-1 score [2] | MMP-1 score [2] | EGFR score [2] | TF score [3] | HLA-DR score [4] | MMP-1 score [4] | uPA score [4] | PAI-1 score [4] | EGFR score [4] | HLA-DR score [5] | uPAR score [5] | PAI-1 score [6] | inhibit PAI-1 in the HDFT system ([6]; indication of TGF-b signaling inhibition without being cytotoxic) | uPA score [7] | PAI-1 score [7] | EGFR score [7] | MMP-1 score [8] |
| --- | --- | --- | --- | --- | --- | --- | --- | --- | --- | --- | --- | --- | --- | --- | --- | --- | --- | --- |
| C[C@]12C=CC(=O)C=C1CC[C@@H]1[C@@H]2[C@@H](O)C[C@@]2(C)[C@H]1CC[C@]2(O)C(=O)CO [Prednisolone] | 0.17 | 0 | 0 | 0 | 0 | 0 | 0 | 0 | 0 | 0 | 1 | 0 | 0 | none of these inhibit PAI-1 | 0 | 0 | 0 | 0 |
| Cc1c(Cl)cccc1Nc1ccccc1C(=O)O [Tolfenamic Acid] | 0.33 | 0 | 0 | 0 | 0 | 0 | 1 | 0 | 1 | 0 | 0 | 0 | 1 | – | 0 | 0 | 0 | 1 |
| COc1cc(-c2ccc(=O)[nH]n2)ccc1OC(F)F [Zardaverine] | 0.25 | 1 | 0 | 0 | 1 | 0 | 0 | 0 | 0 | 0 | 0 | 0 | 1 | – | 0 | 0 | 0 | 0 |
| (R)-(−)-Apomorphine | 0.31 | 1 | 0 | 0 | 0 | 1 | 0 | 0 | 1 | 0 | 0 | 0 | 1 | – | 0 | 0 | 0 | 0 |
| Antimycin A | 0.45 | 1 | 0 | 0 | 1 | 0 | 0 | 0 | 1 | 0 | 0 | 0 | 1 | – | 0 | 1 | 0 | 0 |
